Results as given in US10315992B2, “Tetracyline compounds” (Tetraphase Pharmaceuticals, Inc., priority 2012, dated 2019).
Converted amounts (≈) assume the structure as drawn. Like-named read-outs stand apart in the source and are kept apart here.

Tested on: Burkholderia cenocepacia BC240 (cystic fibrosis isolate, MDR)
Experiment: MIC assay, BC240
Assay type: cell-based
Conditions: for MIC BC 240: B. cenocepacia MDR; for MIC: Burkholderia cenocepacia

| SMILES | MIC BC 240 (Table 5) | MIC BC 240 (Table 7) | MIC | MIC (read-out: MIC BC 240) |
| --- | --- | --- | --- | --- |
| CN(C)c1cc(NC(=O)CNC(C)(C)C)c(O)c2c1C[C@H]1C[C@H]3[C@H](N(C)C)C(O)=C(C(N)=O)C(=O)[C@@]3(O)C(O)=C1C2=O [Tigecycline, tigecycline] | 16 µg/mL (≈ 27.3 µM) | 16 µg/mL (≈ 27.3 µM) | 16 µg/mL (≈ 27.3 µM) | 16 µg/mL (≈ 27.3 µM) |
| CN(C)[C@@H]1C(O)=C(C(N)=O)C(=O)[C@@]2(O)C(O)=C3C(=O)c4c(O)cccc4C[C@H]3C[C@@H]12 [Sancycline, sancycline] | 4 µg/mL (≈ 9.65 µM) | 4 µg/mL (≈ 9.65 µM) | 4 µg/mL (≈ 9.65 µM) | 4 µg/mL (≈ 9.65 µM) |
